Residues, ends and D or L forms follow the SMILES beside them.
Assays:
Type in all cases: cell-based
PepTrac2 (PTR2 fusion) = molecular target: T1, PepTrac2 (PTR2 fusion) (Arabidopsis thaliana, UniProt P46032); experiment: fluorescence response (donor quenching) of sensor in yeast; settings: 0.5 mM diglycine; 50 mM MES pH 5.5; excitation 428 nm
T1 construct: gene NPF8.3; full-length ORF between N-terminal Aphrodite and C-terminal mCerulean; expressed in yeast; intact cells
T1 sequence (P46032 1-585): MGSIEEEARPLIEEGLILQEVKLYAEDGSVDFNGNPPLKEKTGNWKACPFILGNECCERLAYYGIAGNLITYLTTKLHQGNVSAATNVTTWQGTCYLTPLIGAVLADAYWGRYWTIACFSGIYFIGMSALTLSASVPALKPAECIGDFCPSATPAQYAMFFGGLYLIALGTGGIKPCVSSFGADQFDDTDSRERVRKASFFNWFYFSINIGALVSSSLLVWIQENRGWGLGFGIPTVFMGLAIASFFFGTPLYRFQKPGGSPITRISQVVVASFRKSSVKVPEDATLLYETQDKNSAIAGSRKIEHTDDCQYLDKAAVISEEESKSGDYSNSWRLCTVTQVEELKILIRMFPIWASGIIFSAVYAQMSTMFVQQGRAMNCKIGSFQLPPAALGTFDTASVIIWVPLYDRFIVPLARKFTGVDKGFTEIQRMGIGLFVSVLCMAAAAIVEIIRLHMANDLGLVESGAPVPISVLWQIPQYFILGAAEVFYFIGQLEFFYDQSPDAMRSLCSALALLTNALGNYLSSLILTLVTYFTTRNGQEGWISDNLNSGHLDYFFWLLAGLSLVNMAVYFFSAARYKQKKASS

PepTrac1 (PTR1 fusion) = molecular target: T2, PepTrac1 (PTR1 fusion) (Arabidopsis thaliana, UniProt Q9M390); experiment: as above; settings: 0.5 mM diglycine; 50 mM MES pH 5.5; excitation 428 nm
T2 construct: gene NPF8.1; full-length ORF between N-terminal Aphrodite and C-terminal mCerulean; expressed in yeast; intact cells
T2 sequence (Q9M390 1-570): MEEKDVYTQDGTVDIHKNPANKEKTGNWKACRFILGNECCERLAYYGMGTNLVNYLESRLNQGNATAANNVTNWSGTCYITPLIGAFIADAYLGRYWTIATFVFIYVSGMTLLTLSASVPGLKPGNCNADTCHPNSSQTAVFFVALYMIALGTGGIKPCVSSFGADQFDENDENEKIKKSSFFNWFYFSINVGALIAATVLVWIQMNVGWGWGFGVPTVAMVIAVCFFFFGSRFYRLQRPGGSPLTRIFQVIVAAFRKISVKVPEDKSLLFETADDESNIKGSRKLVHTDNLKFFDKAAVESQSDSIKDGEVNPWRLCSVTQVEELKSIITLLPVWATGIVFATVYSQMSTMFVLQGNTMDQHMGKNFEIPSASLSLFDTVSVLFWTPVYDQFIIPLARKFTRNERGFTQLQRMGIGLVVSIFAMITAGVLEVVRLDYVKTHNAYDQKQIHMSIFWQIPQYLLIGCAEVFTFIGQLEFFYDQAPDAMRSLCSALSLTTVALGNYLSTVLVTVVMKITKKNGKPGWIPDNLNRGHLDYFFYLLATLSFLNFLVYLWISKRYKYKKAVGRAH

PepTrac5 (PTR5 fusion) = molecular target: T3, PepTrac5 (PTR5 fusion) (Arabidopsis thaliana, UniProt Q9LFB8); experiment: as above; settings: 0.5 mM diglycine; 50 mM MES pH 5.5; excitation 428 nm
T3 construct: gene NPF8.2; full-length ORF between N-terminal Aphrodite and C-terminal mCerulean; expressed in yeast; intact cells
T3 sequence (Q9LFB8 1-570): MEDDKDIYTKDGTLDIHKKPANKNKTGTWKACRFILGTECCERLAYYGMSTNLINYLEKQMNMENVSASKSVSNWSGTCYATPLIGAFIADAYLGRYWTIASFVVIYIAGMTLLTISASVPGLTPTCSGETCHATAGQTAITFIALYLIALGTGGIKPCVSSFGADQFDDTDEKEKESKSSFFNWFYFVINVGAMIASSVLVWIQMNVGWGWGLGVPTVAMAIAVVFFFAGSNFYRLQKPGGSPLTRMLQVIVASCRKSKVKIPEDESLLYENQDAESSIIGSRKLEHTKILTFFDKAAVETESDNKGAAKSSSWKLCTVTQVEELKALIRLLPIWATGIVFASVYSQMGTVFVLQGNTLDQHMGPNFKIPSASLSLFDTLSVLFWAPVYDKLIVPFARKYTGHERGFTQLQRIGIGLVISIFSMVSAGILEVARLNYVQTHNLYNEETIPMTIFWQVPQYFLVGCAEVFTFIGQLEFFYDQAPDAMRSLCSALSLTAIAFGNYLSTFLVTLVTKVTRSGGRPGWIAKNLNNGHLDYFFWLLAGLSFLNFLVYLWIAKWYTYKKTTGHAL

PepTrac4 (PTR4 fusion) = molecular target: T4, PepTrac4 (PTR4 fusion) (Arabidopsis thaliana, UniProt Q84WG0); experiment: FRET ratio change of sensor in yeast; settings: 0.5 mM diglycine; 50 mM MES pH 5.5; excitation 428 nm
T4 construct: gene NPF8.4; full-length ORF between N-terminal Aphrodite and C-terminal mCerulean; expressed in yeast; intact cells
T4 sequence (Q84WG0 1-545): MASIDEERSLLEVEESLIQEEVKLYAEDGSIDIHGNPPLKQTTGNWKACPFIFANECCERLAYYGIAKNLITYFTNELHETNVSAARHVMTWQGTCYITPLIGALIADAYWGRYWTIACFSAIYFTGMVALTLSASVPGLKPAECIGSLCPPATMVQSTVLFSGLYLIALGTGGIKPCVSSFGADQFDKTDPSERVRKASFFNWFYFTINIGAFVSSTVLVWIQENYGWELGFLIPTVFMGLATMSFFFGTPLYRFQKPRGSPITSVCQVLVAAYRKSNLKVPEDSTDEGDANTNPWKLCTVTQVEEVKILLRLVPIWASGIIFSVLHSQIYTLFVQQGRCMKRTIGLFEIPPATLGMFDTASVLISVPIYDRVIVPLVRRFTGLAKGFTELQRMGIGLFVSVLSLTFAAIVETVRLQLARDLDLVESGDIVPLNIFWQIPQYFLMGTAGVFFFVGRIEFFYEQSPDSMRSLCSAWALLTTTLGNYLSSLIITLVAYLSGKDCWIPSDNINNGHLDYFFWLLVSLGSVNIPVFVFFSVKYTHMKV

[1] = molecular target: T5, NiTrac1 (CHL1/NRT1.1/NPF6.3 fusion) (Arabidopsis thaliana, UniProt Q05085); experiment: fluorescence response (donor quenching) of sensor in yeast, plate reader; settings: 50 mM MES pH 5.5; high-affinity phase of biphasic response (low-affinity phase is a second site); excitation 428 nm
T5 construct: full-length ORF between N-terminal Aphrodite t9 (yellow FP) and C-terminal mCerulean (pDRFlip30); expressed in yeast BJ5465; intact cells
T5 sequence (Q05085 1-590): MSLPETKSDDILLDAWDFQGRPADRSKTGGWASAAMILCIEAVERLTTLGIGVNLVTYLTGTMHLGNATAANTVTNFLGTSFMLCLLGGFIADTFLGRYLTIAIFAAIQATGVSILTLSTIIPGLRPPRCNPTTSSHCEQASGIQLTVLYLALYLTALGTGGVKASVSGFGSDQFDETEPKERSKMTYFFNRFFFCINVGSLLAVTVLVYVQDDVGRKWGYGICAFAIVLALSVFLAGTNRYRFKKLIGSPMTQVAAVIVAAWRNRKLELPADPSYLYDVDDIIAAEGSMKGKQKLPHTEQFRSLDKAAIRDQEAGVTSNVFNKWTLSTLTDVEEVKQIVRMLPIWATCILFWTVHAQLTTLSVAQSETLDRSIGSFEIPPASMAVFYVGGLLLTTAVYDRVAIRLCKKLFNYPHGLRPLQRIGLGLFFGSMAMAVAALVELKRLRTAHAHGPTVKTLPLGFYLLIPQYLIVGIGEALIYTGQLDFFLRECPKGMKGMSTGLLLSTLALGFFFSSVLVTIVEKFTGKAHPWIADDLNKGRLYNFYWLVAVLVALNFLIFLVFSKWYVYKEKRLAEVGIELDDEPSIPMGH

CHL1/NRT1.1/NPF6.3 = molecular target: T6, CHL1/NRT1.1/NPF6.3 (Arabidopsis thaliana, UniProt Q05085); experiment: […]-nitrate uptake and TEVC currents in Xenopus oocytes; settings: 0.25 and 10 mM K15NO3, pH 5.5 (uptake); 0.5 and 10 mM CsNO3 (TEVC)
T6 construct: CHL1 cDNA without fluorescent proteins in pOO2-GW; cRNA-injected Xenopus laevis oocytes
T6 sequence (Q05085 1-590): T5 sequence (Q05085 1-590)

SMILES | fluorescence response (donor quenching) of sensor in yeast (PepTrac2 (PTR2 fusion)) | fluorescence response (donor quenching) of sensor in yeast (PepTrac1 (PTR1 fusion)) | fluorescence response (donor quenching) of sensor in yeast (PepTrac5 (PTR5 fusion)) | FRET ratio change of sensor in yeast (PepTrac4 (PTR4 fusion)) | Km [1] | 15N-nitrate uptake and TEVC currents in Xenopus oocytes (CHL1/NRT1.1/NPF6.3)
NCC(=O)NCC(=O)O [diglycine] (H-Gly-Gly-OH) | PepTrac1, PepTrac2, and PepTrac5 sensors all responded with donor quenching | PepTrac1, PepTrac2, and PepTrac5 sensors all responded with donor quenching | PepTrac1, PepTrac2, and PepTrac5 sensors all responded with donor quenching | PepTrac4 responded to substrate addition with a ratio change | – | –
O=[N+]([O-])O [nitrate] | – | – | – | – | ~ 75.1 ± 21 μM | In response to nitrate addition, CHL1 expressing oocytes showed an inward current

From PMC3950950, “Fluorescent sensors for activity and regulation of the nitrate transceptor CHL1/NRT1.1 and oligopeptide transporters” (eLife, 2014)
